# How the values were obtained:
# Type in all cases: in vivo, C57BL/6 mice
# GPT = test: Transaminase values in the serums (GPT), liver damage; conditions: 2 μg/mouse, serum, normal mice about 11 IU/L
# Description: The mice prepared in the third embodiment were used. After collecting about 1 ml of blood from each mouse over time, serums were separated. Transaminase values in the serums (GPT) were measured using of a Transaminase CII Test Wake (Wake Pure Chemical Industries, Ltd) as an extracorporeal diagnostic kit. The method for measurement was subject to the protocol attached with the kit. In addition, generally speaking, red cells of mice are easily hemolyzed. Thus. GOT values regarding which errors easily occur to results of measurements are not presented herein.
# Herein, first, brief explanations are given in regards to GPT in the serums. GPT normally functions in liver cells. Due to destruction of […] caused by liver damage, such as hepatitis and the like, GPT leaks into the blood. Thus, increase of GPT values in the blood is an index of liver damage. Generally, it is understood that liver damage, such as hepatitis and the like, exists when the figures are greater than 100 IU (international unit)/L (liter).
# T cells = test: Annexin V detection of apoptosis in liver T cell fractions (control); conditions: 2 μg/mouse; 24 hours after dosing
# Description: (§1) The basic method for the experiment is the same as that of the third embodiment. C57BL/6 8th-week mice were used. […] And 2 μg/mouse of αGalcer was likewise administered. After 24 hours following the dosing, lymphocytes had been separated from the livers of the mice over time. Triple labeling immunostaining was undertaken by fluorescently-labeled monoclonal antibody based on […] anti-CD3 antibody (Pharmingen) and PE-labeled anti-NK1.1 antibody (Pharmingen) for detection of NKT cells (CD3^+NK1.1^+), and FITC labeled Annexin V (Pharmingen) for detection of apoptosis cells. The method for immunostaining was subject to that of Non-Patent Document 1. Next, PerCP and PE were detected via flow cytometric analysis (FACSCalibur, Becton-Dickinson). Based on the fluorescence intensity thereof, NKT cells fractions (areas shown in c of FIG. 13) were obtained. […] According to the embodiment, cells which caused apoptosis within the fractions were detected via measurement of fluorescence intensity of FITC in such fractions. […]
# (§2) Histograms of mouse NKT cell fractions and T cell fractions of unprocessed normal mouse cells are shown (A and D). […] The fluorescence intensity of fluorescent substance C is shown on the horizontal axis and the number of cells (in units) is shown on the vertical axis for each profile. […]
# INF-γ = test: Level of INF-γ in serum by ELISA; conditions: 2 μg/mouse αGalcer, normal mouse about 40 μg/ml, FIG. 14
# Description: Mice prepared in the third embodiment were used. After about 1 ml of blood had been collected from each mouse over time, serum was separated. The level of INF-γ in such serum was measured in accordance with the ELISA test. In regards to the ELISA test, a BD Opt EIA set (Pharmingen) was used, and the method was subject to the attached protocol.
# NKT cells (CD3+NK1.1+) = test: Annexin V detection of apoptosis in liver NKT cell fractions; conditions: 2 μg/mouse; 24 hours after dosing; normal mice peak around 10
# Description: as §1, §2
# NKT cells of the liver = test: Flow cytometric analysis of liver NKT cells after intraperitoneal administration; conditions: 2 μg/mouse, abdominal cavity
# Description: C57BL/6 8th-week mice were used. […] Additionally, individuals that received 2 μg/mouse were used as positive controls. After dosing, lymphocytes were separated from the livers of the mice over time. Double labeling immunostaining was undertaken with 2 types of h monoclonal antibodies. FITC-labeled anti-CD3 (Phatrningen) and PE-labeled anti-NK1.1 (Pharmingen). Thereafter, flow cytometric analysis (FACSCalibur, Becton-Dickinson) was undertaken for dynamic states of NKT cells. In addition, a method of lymphocyte separation from the livers and the immunostaining method were subject to the methods of Non-Patent Document 7.
# Cytograms show fluorescence intensities for FITC-labeled anti-CD3 on the horizontal axis and PE-labeled anti-NK1.1 antibody on the vertical axis in a log scale fashion. The larger the fluorescence intensities for FITC, the greater the number of CD3 molecules on the surfaces of cells. And the larger the PE fluorescence intensities, the greater the number of NK1.1 molecules on the measured surfaces of cells. […] Additionally, numeric values within the fractions represent the percentages of cells included in such fractions relative to all measured cells.
smiles,measurement,setting,value
"CCCCCCCCCCCCCCCCCCCCCCCCCC(=O)N[C@@H](CO[C@H]1O[C@H](CO)[C@H](O)[C@H](O)[C@H]1O)[C@H](O)[C@H](O)CCCCCCCCCCCCCC [αGalCer, a-Galactosyl ceramide]",GPT values,GPT; after 12 hours,116 IU/L
same,GPT values,GPT; after 24 hours,183 IU/L
same,apoptosis induction in T cells,T cells,Apoptosis induction could not be recognized
same,level of INF-γ in the blood,INF-γ,"about 3,000 μg/ml"
same,peak of Annexin V fluorescence intensity in NKT cell fraction,NKT cells (CD3+NK1.1+),~200
same,NKT cells in the liver,NKT cells of the liver; 24 hours following administration,such tendency had not changed
same,NKT cells in the liver,NKT cells of the liver; within 12 hours following dosing,most NKT cells in the liver disappeared

# From patent US20130022641A1, “Anti-Tumor Agent and Immunostimulating Agent” (ORION BREWERIES, LTD., priority 2005, published 2013)
